Reference: the supplement of paper PMC8671470

Assays:
Details in all cases: 72 h
MV4-11 [1] = system: MV4-11
Procedure, shortened: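 Fifteen myeloid leukaemia cell lines were seeded in RPMI 1640 at densities titrated to the linear growth range and placed in 384-well plates with acoustically pre-printed compounds at five tenfold doses from 1 to 10,000 nM, in duplicate. After 72 h at 37 °C with 5% CO2, luminescent ATP viability was normalised to vehicle and to a positive control at 10 µM, and curves were fitted with a four-parameter log-logistic model. The IC50 was obtained from these fits.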

HL-60 [2] = test: cell viability (% survival relative to DMSO control); higher = less cytotoxic
Procedure, shortened: (§1)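 Area under the curve, where listed, was derived from four-parameter log-logistic fits with drc and PharmacoGx. These fits used CellTiter-Glo viability from HL-60 cells in RPMI 1640 with 10% FBS, normalised to DMSO wells and wells holding 10 μM proteasome inhibitor. The full library was rescreened on 384-well plates in duplicate at five tenfold concentrations, 1–10,000 nM, with DMSO or 100 nM of one of three metabolic inhibitors, for 72 h at 37 °C, 5% CO2.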

BV-173 = test: cell viability (% survival relative to DMSO control, bortezomib = 0%); higher = less cytotoxic
Procedure, shortened: (§2)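 Seeding density for each of the 10 AML and 5 CML cell lines was titrated to the linear growth range. Cells went into 384-well plates pre-printed in duplicate with compounds at 1, 10, 100, 1000 or 10000 nM and were held for 72 h at 37 °C with 5% CO2. CellTiter-Glo luminescence then provided the readout. Percent survival is expressed relative to vehicle at 100% and a 10 µM positive control at 0%, averaged over duplicates.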

HEL = test: as above
Procedure, shortened: as §2

HL-60 [3] = test: as above
Procedure, shortened: as §2

K-562 = test: as above
Procedure, shortened: as §2

KCL-22 = test: as above
Procedure, shortened: as §2

KG-1 = test: as above
Procedure, shortened: as §2

KU-812 = test: as above
Procedure, shortened: as §2

LAMA-84 = test: as above
Procedure, shortened: as §2

ML-2 = test: as above
Procedure, shortened: as §2

MOLM-13 = test: as above
Procedure, shortened: as §2

MV4-11 [4] = test: as above
Procedure, shortened: as §2

Mono-Mac-6 = test: as above
Procedure, shortened: as §2

NOMO-1 = test: as above
Procedure, shortened: as §2

SHI-1 = test: as above
Procedure, shortened: as §2

THP-1 = test: as above
Procedure, shortened: as §2

HL-60 [5] = test: area under dose-response curve (viability, 1 nM-10 uM) (fraction (0-1)); higher = more sensitive
Procedure, shortened: as §1

CCCCCCCCCCCCC/C=C/[C@@H](O)[C@H](CO)N(C)C [N,N-Dimethylsphingosine]
Details | IC50 (cell viability) [µM]
MV4-11 [1] | > 10

cell viability [%], HL-60 [2]
Details | 0.001 µM | 0.01 µM | 0.1 µM | 1 µM | 10 µM
co-treatment: AZD3965 100 nM | 95.3 | 103 | 100 | 100.26 | -1.76
co-treatment: DMSO vehicle | 98.6 | 98.5 | 102 | 97.42 | 54.1
co-treatment: GSK2194069 100 nM | 90.2 | 98.3 | 103 | 97.23 | 86.6
co-treatment: pictilisib 100 nM | 87.6 | 112 | 106 | 96.1 | 62.7

Details | area under dose-response curve, co-treatment: AZD3965 100 nM | area under dose-response curve, co-treatment: DMSO vehicle | area under dose-response curve, co-treatment: GSK2194069 100 nM | area under dose-response curve, co-treatment: pictilisib 100 nM | cell viability, 1 nM [%] | cell viability, 10 nM [%] | cell viability, 100 nM [%] | cell viability, 1000 nM [%] | cell viability, 10000 nM [%]
BV-173 | – | – | – | – | 93 | 89.7 | 98.7 | 74.2 | 22.5
HEL | – | – | – | – | 96.2 | 94.6 | 103 | 96.2 | 0.109
HL-60 [3] | – | – | – | – | 90.6 | 84.7 | 100 | 105 | 88.9
HL-60 [5] | 0.132 | 0.132 | < 0.0301 | 0.0441 | – | – | – | – | –
K-562 | – | – | – | – | 97.4 | 95.2 | 103 | 104 | 85.6
KCL-22 | – | – | – | – | 95.8 | 98 | 101 | 91.3 | 1.85
KG-1 | – | – | – | – | 92.2 | 96.8 | 101 | 82.7 | 37.4
KU-812 | – | – | – | – | 101 | 90.5 | 103 | 102 | 55
LAMA-84 | – | – | – | – | 101 | 96.7 | 106 | 91.3 | 93.3
ML-2 | – | – | – | – | 95.1 | 96.8 | 97.7 | 107 | -0.179
MOLM-13 | – | – | – | – | 97.3 | 96.5 | 86.2 | 104 | 71.1
MV4-11 [4] | – | – | – | – | 94.2 | 102 | 95 | 117 | 95.8
Mono-Mac-6 | – | – | – | – | 95.1 | 91.7 | 97.9 | 89.4 | 70
NOMO-1 | – | – | – | – | 92 | 101 | 100 | 94.1 | 85.8
SHI-1 | – | – | – | – | 101 | 97.8 | 104 | 97.8 | 83.8
THP-1 | – | – | – | – | 97.5 | 100 | 105 | 89.7 | 61.7

N#Cc1ccc(C2CCCc3cncn32)cc1 (stereo not given) [Fadrozole]
Details | IC50 (cell viability) [µM]
MV4-11 [1] | > 10

cell viability [%], HL-60 [2]
Details | 0.001 µM | 0.01 µM | 0.1 µM | 1 µM | 10 µM
co-treatment: AZD3965 100 nM | 99.99 | 98.614 | 101 | 96.8 | 98.7
co-treatment: DMSO vehicle | 103 | 101 | 104 | 100 | 102.2
co-treatment: GSK2194069 100 nM | 105 | 97.3 | 101 | 112 | 100
co-treatment: pictilisib 100 nM | 103 | 101 | 113 | 113 | 107

Details | area under dose-response curve, co-treatment: AZD3965 100 nM | area under dose-response curve, co-treatment: DMSO vehicle | area under dose-response curve, co-treatment: GSK2194069 100 nM | area under dose-response curve, co-treatment: pictilisib 100 nM | cell viability, 1 nM [%] | cell viability, 10 nM [%] | cell viability, 100 nM [%] | cell viability, 1000 nM [%] | cell viability, 10000 nM [%]
BV-173 | – | – | – | – | 103 | 95.3 | 95 | 116 | 106
HEL | – | – | – | – | 106 | 95.1 | 93.5 | 96.9 | 111
HL-60 [3] | – | – | – | – | 108 | 91.7 | 88 | 85.9 | 99.2
HL-60 [5] | < 0.0301 | < 0.0301 | < 0.0301 | < 0.0301 | – | – | – | – | –
K-562 | – | – | – | – | 95.8 | 97.9 | 95.8 | 101 | 109
KCL-22 | – | – | – | – | 115 | 92.2 | 88.6 | 82.7 | 103
KG-1 | – | – | – | – | 108 | 97.9 | 89.5 | 110 | 108
KU-812 | – | – | – | – | 95.8 | 87.3 | 92.2 | 112 | 112
LAMA-84 | – | – | – | – | 102 | 93.7 | 103 | 95.5 | 107
ML-2 | – | – | – | – | 90.5 | 90.7 | 86.2 | 107 | 109
MOLM-13 | – | – | – | – | 108 | 86.8 | 92.7 | 94.4 | 93.2
MV4-11 [4] | – | – | – | – | 109 | 96.4 | 95.9 | 93.2 | 98.1
Mono-Mac-6 | – | – | – | – | 102 | 93.4 | 97.2 | 101 | 112
NOMO-1 | – | – | – | – | 100 | 90.2 | 93.4 | 100 | 105
SHI-1 | – | – | – | – | 113 | 95.3 | 101 | 95.8 | 102
THP-1 | – | – | – | – | 99.6 | 96.3 | 96.2 | 107 | 102

COc1ccc2c(c1)c(CC(=O)O)c(C)n2C(=O)c1ccc(Cl)cc1 [Indomethacine]
Details | IC50 (cell viability) [µM]
MV4-11 [1] | > 10

cell viability [%], HL-60 [2]
Details | 0.001 µM | 0.01 µM | 0.1 µM | 1 µM | 10 µM
co-treatment: AZD3965 100 nM | 94.5 | 76.1 | 100 | 103 | 91.6
co-treatment: DMSO vehicle | 93.22 | 91 | 97.19 | 101 | 100
co-treatment: GSK2194069 100 nM | 88 | 95.9 | 97.61 | 99.8 | 89.1
co-treatment: pictilisib 100 nM | 90.7 | 87.2 | 93.2 | 97.1 | 88.4

Details | area under dose-response curve, co-treatment: AZD3965 100 nM | area under dose-response curve, co-treatment: DMSO vehicle | area under dose-response curve, co-treatment: GSK2194069 100 nM | area under dose-response curve, co-treatment: pictilisib 100 nM | cell viability, 1 nM [%] | cell viability, 10 nM [%] | cell viability, 100 nM [%] | cell viability, 1000 nM [%] | cell viability, 10000 nM [%]
BV-173 | – | – | – | – | 89.5 | 94.1 | 105 | 112 | 81.8
HEL | – | – | – | – | 109 | 92.8 | 94.3 | 92.7 | 95.5
HL-60 [3] | – | – | – | – | 124 | 104 | 100 | 84.6 | 147
HL-60 [5] | < 0.0301 | < 0.0301 | < 0.0301 | < 0.0301 | – | – | – | – | –
K-562 | – | – | – | – | 95.2 | 101 | 96 | 103 | 90.4
KCL-22 | – | – | – | – | 113 | 84 | 96 | 110 | 102
KG-1 | – | – | – | – | 110 | 106 | 98 | 99.3 | 97.6
KU-812 | – | – | – | – | 100 | 101 | 95.6 | 96.4 | 80
LAMA-84 | – | – | – | – | 86.4 | 98.5 | 92.9 | 107 | 91.5
ML-2 | – | – | – | – | 108 | 98.3 | 98.4 | 90.4 | 94.1
MOLM-13 | – | – | – | – | 105 | 93.7 | 98.2 | 108 | 94.5
MV4-11 [4] | – | – | – | – | 86.9 | 82.1 | 102 | 95.3 | 92.2
Mono-Mac-6 | – | – | – | – | 97.9 | 93.8 | 99.8 | 112 | 92.3
NOMO-1 | – | – | – | – | 98.3 | 107 | 100 | 110 | 95.7
SHI-1 | – | – | – | – | 120 | 95.3 | 99 | 94.2 | 94.3
THP-1 | – | – | – | – | 100 | 98.8 | 105 | 110 | 97.8
